From PubChem BioAssay (NCI)
“And” between values parts separate entries of the source, which are not always exact repeats. Equal entries are not always repeated.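 Method: 48-hour compound exposure of cells in 96-well plates, five concentrations, linear interpolation of endpoints. GI50 marks 50% less growth. TGI: total growth inhibition.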

Assays:
Assay in all cases: inhibition of tumour cell growth, NCI panel, 48 h
786-0 renal = system: 786-0 renal
ACHN renal = system: ACHN renal
NCI-H23 lung = system: NCI-H23 lung
NCI-H522 lung = system: NCI-H522 lung
RPMI-8226 leukemia = system: RPMI-8226 leukemia
RXF 393 renal = system: RXF 393 renal
SF-295 CNS = system: SF-295 CNS
SK-MEL-28 melanoma = system: SK-MEL-28 melanoma
SK-MEL-5 melanoma = system: SK-MEL-5 melanoma
UACC-257 melanoma = system: UACC-257 melanoma

SMILES | GI50 (786-0 renal) [µM] | TGI (786-0 renal) | GI50 (ACHN renal) | TGI (ACHN renal) | GI50 (NCI-H23 lung) | TGI (NCI-H23 lung) | GI50 (NCI-H522 lung) [µM] | TGI (NCI-H522 lung) | TGI (RPMI-8226 leukemia) [µM] | GI50 (RXF 393 renal) | TGI (RXF 393 renal) | GI50 (SF-295 CNS) [µM] | TGI (SF-295 CNS) | GI50 (SK-MEL-28 melanoma) | TGI (SK-MEL-28 melanoma) | GI50 (SK-MEL-5 melanoma) | TGI (SK-MEL-5 melanoma) | GI50 (UACC-257 melanoma) | TGI (UACC-257 melanoma) | GI50 (RPMI-8226 leukemia) [µM]
CSc1nc(NC2OC(COC(C)=O)C(OC(C)=O)C(OC(C)=O)C2OC(C)=O)c(N=CC=Nc2c(NC3OC(COC(C)=O)C(OC(C)=O)C(OC(C)=O)C3OC(C)=O)nc(SC)n(C)c2=O)c(=O)n1C (configuration not stated) | 16.7 | 50 µM and > 80.6 µM | 27.8 µM | 50 µM and > 100 µM | > 50 µM | > 100 µM | > 50 | > 100 µM | > 100 | 12.4 µM | 46.2 µM and 61.5 µM | > 50 | > 50 µM and 98.8 µM | > 50 µM | > 100 µM | > 50 µM | > 100 µM | > 50 µM | > 100 µM | –
Cc1cc2cc3c(=O)[nH]c(=O)[nH]c3nc2cc1C | – | > 100 µM | – | > 100 µM | – | > 100 µM | – | > 100 µM | > 100 | – | > 100 µM | – | > 100 µM | – | > 100 µM | – | > 100 µM | – | > 100 µM | –
COc1ccc2c(c1)c[n+](C)c1c3cc(OC)c(OC)cc3ccc21 | 2.85 | 15.9 µM | 2.42 µM and 9.86 µM | 5.01 µM and 23.8 µM | 1.48 µM and 3.35 µM | 3.08 µM and 11.8 µM | – | 2.33 µM and 4.34 µM | 7.28 | 1.5 µM and 5.8 µM | 2.98 µM and 13.6 µM | 5.06 | 17.8 µM | 1.7 µM and 13 µM | 3.45 µM and 27.3 µM | 4.08 µM and 8.31 µM | 15.1 µM and 20.2 µM | 1.8 µM and 13.5 µM | 4.36 µM and 30.8 µM | –
COc1ccc(C(O)(CCC(C)C)C(CN2CCOCC2)c2ccc(Cl)cc2)cc1 (configuration not stated) | 14 | 28.6 µM | 14.4 µM | 27.9 µM | 9.85 µM | 30.3 µM | 6.7 | 21.6 µM | 31.2 | 6.49 µM | 21.7 µM | 13.4 | 29.8 µM | 15.7 µM | 34.4 µM | 13.8 µM | 30.9 µM | 13.4 µM | 33 µM | 8.76
COc1ccc(-c2cc(/C=C/C(=O)c3ccc(OC)c(OC)c3)[nH]n2)cc1 | 1.6 | 3.09 µM | 1.68 µM | 3.83 µM | 2.47 µM | 6.33 µM | 0.41 | 1.39 µM | 1.33 | 1.39 µM | 2.94 µM | 2.08 | 5.37 µM | 1.65 µM | 3.07 µM | 1.77 µM | 3.72 µM | 1.73 µM | 3.65 µM | 0.32
O=C(O)c1ccc(C(=O)O)c2c(C(=O)O)ccc(C(=O)O)c12 | – | > 100 µM | – | > 100 µM | – | > 100 µM | – | > 100 µM | > 100 | – | > 100 µM | – | > 100 µM | – | > 100 µM | – | > 100 µM | – | > 100 µM | –
CS/C(=C(\S)c1ccccc1)c1ccccc1 | – | > 100 µM | – | > 100 µM | – | > 100 µM | – | > 100 µM | > 100 | – | > 100 µM | – | > 100 µM | – | > 100 µM | – | > 100 µM | – | > 100 µM | –
CN(C)CCSc1cc(-c2ccccc2)c2ccccc2n1 | – | 25.2 µM | – | 26.7 µM | – | 23.1 µM | – | 24.1 µM | > 100 | – | 15.8 µM | – | 28 µM | – | 17.9 µM | – | 4.7 µM | – | 24.8 µM | –
BrCc1cccc(C[P+](c2ccccc2)(c2ccccc2)c2ccccc2)c1 | 46.2 | > 100 µM | > 100 µM | > 100 µM | 36.2 µM | > 100 µM | 6.88 | > 100 µM | 22.7 | 54.7 µM | > 100 µM | 35.5 | > 100 µM | 21.7 µM | > 100 µM | 5.14 µM | 24 µM | 5.49 µM | > 100 µM | 2.18
CCN(Cc1ccc(F)cc1)c1ccc(CO)c(Br)c1 | 5.85 | 31.1 µM | 10.2 µM | 42 µM | 15.6 µM | > 56.1 µM | 13.8 | 30.2 µM | 22.1 | 1.4 µM | 16.1 µM | 0.148 | 2.3 µM | 15 µM | 50.6 µM | 3.42 µM | 19.6 µM | 0.0406 µM | 0.185 µM | 0.646
O=S(=O)(Nc1ccc(Cl)cc1Cl)c1ccc(-c2cnc(C3CC3)o2)cc1 | 0.615 | > 86.5 µM | 0.639 µM | 21.5 µM | 1.4 µM | 55.5 µM | 0.435 | 17.3 µM | 44.8 | 0.359 µM | 7.41 µM | 0.335 | 3.4 µM | 3.28 µM | > 78.8 µM | 0.555 µM | 14.1 µM | 10.5 µM | 60.5 µM | 0.903
Cc1ccc(S(=O)OCc2c(C)c(C)c(COS(=O)c3ccc(C)cc3)c(C)c2C)cc1 (configuration not stated) | – | > 100 µM | – | > 100 µM | – | > 100 µM | – | > 100 µM | > 100 | – | > 100 µM | – | > 100 µM | – | > 100 µM | – | > 100 µM | – | > 100 µM | –
O=C(CNS(=O)(=O)Cc1ccccc1)NNc1ccccc1 | – | > 100 µM | – | > 100 µM | – | > 100 µM | – | > 100 µM | > 100 | – | > 100 µM | – | > 100 µM | – | > 100 µM | – | > 100 µM | – | > 100 µM | –
O=C1CCC(=O)c2c1c(O)c1ccncc1c2O | – | 29.1 µM | – | 28.6 µM | – | 31.9 µM | – | 24.5 µM | 55.5 | – | 35.6 µM | – | 36.4 µM | – | 34.8 µM | – | 23.5 µM | – | 20.2 µM | –
CN(C)C(=S)Sc1ccc([N+](=O)[O-])cc1[N+](=O)[O-] | 5.3 | 16 µM | 1.67 µM | 3.05 µM | 2.93 µM | 11.6 µM | 0.482 | 1.6 µM | 6.79 | 3.83 µM | 8.3 µM | 14.5 | 29 µM | 6.75 µM | 18.4 µM | 1.73 µM | 5.82 µM | 1.75 µM | 4.9 µM | 1.39
CCc1c(Cl)c(C)cc(O)c1Cl | – | > 100 µM | – | 60.6 µM | – | > 100 µM | – | > 100 µM | 57.5 | – | > 100 µM | – | > 100 µM | – | > 100 µM | – | 28.6 µM | – | 99.7 µM | –
